{"source": "the supplement of paper PMC6723410", "key": {"GUMC-403 [1]": {"tested_on": "GUMC-403", "assay": "viability at highest tested concentration (max response) relative to DMSO (% of DMSO control); higher = less cytotoxic", "settings": "library / dose series: MIPE library, 11-point 1:3 dilution; top concentration 46.1 µM; 48 h", "outline": "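Patient-derived GUMC-403 papilloma cells grown by conditional reprogramming were plated at 700/well in 5 μL F + Y medium in 1536-well plates and incubated overnight at 37 °C. They then received 23 nL of MIPE 4.0 compounds by pin tool (11-point 1:3 series) for 48 h. CellTiter-Glo luminescence was read on a ViewLux and normalised with DMSO wells as 100% and empty wells as 0%. The value is viability at the highest tested concentration relative to DMSO control.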"}, "GUMC-403 [2]": {"tested_on": "GUMC-403", "assay": "AC50 for reduction of cell viability; higher = less potent", "settings": "library / dose series: MIPE library, 11-point 1:3 dilution; 48 h"}}}
{"smiles": "CC(C)C1=N[N](C\\2=C1C(=O)N\\C(=N2)CC3=CC=C(OCCO)C=C3)C4=C(Cl)C=CC=C4Cl", "values": [{"measurement": "viability", "setting": "GUMC-403 [1]", "value": 47.9}, {"measurement": "AC50 for reduction of cell viability", "setting": "GUMC-403 [2]", "value": 132, "unit": "nM"}]}
{"smiles": "COc1cccc2c1C(=O)c1c(O)c3c(c(O)c1C2=O)C[C@@](O)(C(C)=O)C[C@@H]3O[C@H]1C[C@H](N)[C@H](O)[C@H](C)O1", "values": [{"measurement": "viability", "setting": "GUMC-403 [1]", "value": 33.5}, {"measurement": "AC50 for reduction of cell viability", "setting": "GUMC-403 [2]", "value": 372, "unit": "nM"}]}
{"smiles": "COc1cc2nc(-c3ccc(N4CCN(C)CC4)cc3)nc(NCCN3CCOCC3)c2cc1OC", "values": [{"measurement": "viability", "setting": "GUMC-403 [1]", "value": 48.5}, {"measurement": "AC50 for reduction of cell viability", "setting": "GUMC-403 [2]", "value": 1050, "unit": "nM"}]}
{"smiles": "C[C@@H]\\1COC(=N1)\\NC2=CC3=C(C=C2)N=CN=C3NC4=CC(=C(OCC5=NC=CS5)C=C4)Cl", "values": [{"measurement": "viability", "setting": "GUMC-403 [1]", "value": 54.5}, {"measurement": "AC50 for reduction of cell viability", "setting": "GUMC-403 [2]", "value": 590, "unit": "nM"}]}
{"smiles": "Cc1nc(N)sc1-c1ccnc(Nc2ccc(N3CCOCC3)cc2)n1", "values": [{"measurement": "viability", "setting": "GUMC-403 [1]", "value": 29.8}, {"measurement": "AC50 for reduction of cell viability", "setting": "GUMC-403 [2]", "value": 26400, "unit": "nM"}]}
{"smiles": "COC1=CC(c2cc3ccccc3[nH]2)=N/C1=C/c1[nH]c(C)cc1C", "values": [{"measurement": "viability", "setting": "GUMC-403 [1]", "value": 26.6}, {"measurement": "AC50 for reduction of cell viability", "setting": "GUMC-403 [2]", "value": 10500, "unit": "nM"}]}
{"smiles": "C[S+](=O)([O-])CCNCc1ccc(-c2ccc3ncnc(Nc4ccc(OCc5cccc(F)c5)c(Cl)c4)c3c2)o1", "values": [{"measurement": "viability", "setting": "GUMC-403 [1]", "value": 8.12}, {"measurement": "AC50 for reduction of cell viability", "setting": "GUMC-403 [2]", "value": 10500, "unit": "nM"}]}
{"smiles": "Nc1nc(F)nc2c1ncn2[C@@H]1O[C@H](CO)[C@@H](O)[C@H]1O", "values": [{"measurement": "viability", "setting": "GUMC-403 [1]", "value": 47.8}, {"measurement": "AC50 for reduction of cell viability", "setting": "GUMC-403 [2]", "value": 3720, "unit": "nM"}]}
{"smiles": "CC[C@H](NC1=C2N=C[NH]C2=NC=N1)C/3=N/C4=C(C(=CC=C4)F)C(=O)N3C5=CC=CC=C5", "values": [{"measurement": "viability", "setting": "GUMC-403 [1]", "value": 75.5}, {"measurement": "AC50 for reduction of cell viability", "setting": "GUMC-403 [2]", "value": 3720, "unit": "nM"}]}
{"smiles": "CCOc1cc2ncc(C#N)c(Nc3ccc(OCc4ccccn4)c(Cl)c3)c2cc1NC(=O)/C=C/CN(C)C", "values": [{"measurement": "viability", "setting": "GUMC-403 [1]", "value": 54.2}, {"measurement": "AC50 for reduction of cell viability", "setting": "GUMC-403 [2]", "value": 74.3, "unit": "nM"}]}
{"smiles": "CC(C)NC[C@@H](C(=O)N1CCN(c2ncnc3c2[C@H](C)C[C@H]3O)CC1)c1ccc(Cl)cc1", "values": [{"measurement": "viability", "setting": "GUMC-403 [1]", "value": 76.6}, {"measurement": "AC50 for reduction of cell viability", "setting": "GUMC-403 [2]", "value": 2350, "unit": "nM"}]}
{"smiles": "COc1ccc(-c2ccc3c(N4CCOCC4)nc(N4C[C@@H](C)O[C@@H](C)C4)nc3n2)cc1CO", "values": [{"measurement": "viability", "setting": "GUMC-403 [1]", "value": 62.3}, {"measurement": "AC50 for reduction of cell viability", "setting": "GUMC-403 [2]", "value": 1870, "unit": "nM"}]}
{"smiles": "CC[S+](=O)([O-])Nc1ccc2c(c1)/C(=C(/Nc1ccc(CN3CCCCC3)cc1)c1ccccc1)C(=O)N2", "values": [{"measurement": "viability", "setting": "GUMC-403 [1]", "value": 50}, {"measurement": "AC50 for reduction of cell viability", "setting": "GUMC-403 [2]", "value": 1320, "unit": "nM"}]}
{"smiles": "NC(=O)[C@@H](CCC(F)(F)F)N(Cc1ccc(-c2ncon2)cc1F)[S+](=O)([O-])c1ccc(Cl)cc1", "values": [{"measurement": "viability", "setting": "GUMC-403 [1]", "value": 76.2}, {"measurement": "AC50 for reduction of cell viability", "setting": "GUMC-403 [2]", "value": 132, "unit": "nM"}]}
{"smiles": "CSCC[C@H](NC(=O)[C@H](Cc1c[nH]c2ccccc12)NC(=O)CCNC(=O)OC(C)(C)C)C(=O)N[C@@H](CC(=O)O)C(=O)N[C@@H](Cc1ccccc1)C(N)=O", "values": [{"measurement": "viability", "setting": "GUMC-403 [1]", "value": 30.1}, {"measurement": "AC50 for reduction of cell viability", "setting": "GUMC-403 [2]", "value": 5900, "unit": "nM"}]}
{"smiles": "C=CCNc1c(O)cc2c(O)c1C[C@@H](C)C[C@H](OC)[C@H](O)[C@@H](C)/C=C(/C)[C@H](OC(N)=O)[C@@H](OC)/C=C\\C=C(\\C)C(=O)N2", "values": [{"measurement": "viability", "setting": "GUMC-403 [1]", "value": 68.9}, {"measurement": "AC50 for reduction of cell viability", "setting": "GUMC-403 [2]", "value": 4690, "unit": "nM"}]}
{"smiles": "CC[S+](=O)([O-])c1cccc(-c2cc(C(=O)NC3CCN(C)CC3)c(C)c3[nH]c4ncc(C)cc4c23)c1", "values": [{"measurement": "viability", "setting": "GUMC-403 [1]", "value": 75.8}, {"measurement": "AC50 for reduction of cell viability", "setting": "GUMC-403 [2]", "value": 4690, "unit": "nM"}]}
{"smiles": "c1cncc(CN2CCC(n3ncc4c(N5CCOCC5)nc(-c5ccc6[nH]ccc6c5)nc43)CC2)c1", "values": [{"measurement": "viability", "setting": "GUMC-403 [1]", "value": 62.6}, {"measurement": "AC50 for reduction of cell viability", "setting": "GUMC-403 [2]", "value": 332, "unit": "nM"}]}
{"smiles": "O=C(/C=C/c1ccc(CN(CCO)CCc2c[nH]c3ccccc23)cc1)NO", "values": [{"measurement": "viability", "setting": "GUMC-403 [1]", "value": 44.9}, {"measurement": "AC50 for reduction of cell viability", "setting": "GUMC-403 [2]", "value": 5900, "unit": "nM"}]}
{"smiles": "CCC[C@H](NC(=O)/C(C#N)=C/c1cccc(Br)n1)c1ccccc1", "values": [{"measurement": "viability", "setting": "GUMC-403 [1]", "value": 19.1}, {"measurement": "AC50 for reduction of cell viability", "setting": "GUMC-403 [2]", "value": 16600, "unit": "nM"}]}
{"smiles": "CC#C[C@]1(O)CC[C@H]2[C@@H]/3CCC/4=C/C(=O)CCC4=C3[C@H](C[C@]12C)C5=CC=C(C=C5)N(C)C", "values": [{"measurement": "viability", "setting": "GUMC-403 [1]", "value": 59}, {"measurement": "AC50 for reduction of cell viability", "setting": "GUMC-403 [2]", "value": 833, "unit": "nM"}]}
{"smiles": "CCNC(=O)c1noc(-c2cc(C(C)C)c(O)cc2O)c1-c1ccc(CN2CCOCC2)cc1", "values": [{"measurement": "viability", "setting": "GUMC-403 [1]", "value": 74.5}, {"measurement": "AC50 for reduction of cell viability", "setting": "GUMC-403 [2]", "value": 296, "unit": "nM"}]}
{"smiles": "CC[C@@]1(O)C(=O)OC\\C2=C1\\C=C\\3N(CC4=C3N=C5C=CC=CC5=C4)C2=O", "values": [{"measurement": "viability", "setting": "GUMC-403 [1]", "value": 32.3}, {"measurement": "AC50 for reduction of cell viability", "setting": "GUMC-403 [2]", "value": 16600, "unit": "nM"}]}
{"smiles": "OCCCNc1cc(-c2ccnc(Nc3cccc(Cl)c3)n2)ccn1", "values": [{"measurement": "viability", "setting": "GUMC-403 [1]", "value": 63.6}, {"measurement": "AC50 for reduction of cell viability", "setting": "GUMC-403 [2]", "value": 105, "unit": "nM"}]}
{"smiles": "CC(C)(C)c1cnc(CSc2cnc(NC(=O)C3CCNCC3)s2)o1", "values": [{"measurement": "viability", "setting": "GUMC-403 [1]", "value": 24.3}, {"measurement": "AC50 for reduction of cell viability", "setting": "GUMC-403 [2]", "value": 469, "unit": "nM"}]}
{"smiles": "O=C1c2c(O)ccc(O)c2C(=O)c2c(NCCNCCO)ccc(NCCNCCO)c21", "values": [{"measurement": "viability", "setting": "GUMC-403 [1]", "value": 12.4}, {"measurement": "AC50 for reduction of cell viability", "setting": "GUMC-403 [2]", "value": 7430, "unit": "nM"}]}
{"smiles": "C/C=C(/C)C(=O)O[C@H]1C(C)=C2[C@H]([C@@H]1OC(=O)CCCCCCC)[C@@](C)(OC(C)=O)C[C@H](OC(=O)CCC)[C@@]1(O)[C@H]2OC(=O)[C@@]1(C)O", "values": [{"measurement": "viability", "setting": "GUMC-403 [1]", "value": 57.2}, {"measurement": "AC50 for reduction of cell viability", "setting": "GUMC-403 [2]", "value": 526, "unit": "nM"}]}
{"smiles": "Cc1cnc(Nc2ccc(N3CCN(C)CC3)cc2)nc1Nc1cccc([S+](=O)([O-])NC(C)(C)C)c1", "values": [{"measurement": "viability", "setting": "GUMC-403 [1]", "value": 30.2}, {"measurement": "AC50 for reduction of cell viability", "setting": "GUMC-403 [2]", "value": 16600, "unit": "nM"}]}
